Measurements reported in patent publication US8426447B2, “Spiro-tricyclic ring compounds as beta-secretase modulators and methods of use” (Amgen Inc., priority 2008, dated 2013).

target: BACE1 (Homo sapiens, UniProt P56817); assay: In Vitro Enzymatic BACE FRET (Fluorescence Resonance Energy Transfer) Assay; format: biochemical; conditions: Table 1; read-out: BACE1 FRET assay
Description: In Vitro Enzymatic BACE FRET (Fluorescence Resonance Energy Transfer) Assay (Enzyme Assay Data in the Example Tables I, II, III & IV) The assay buffer used in this screen is 0.05 M acetate, pH 4.2, 10% DMSO final, 100 uM genapol (which is a nonionic detergent, below its Critical Micelle Concentration). […] This assay is effectively started by the addition of FRET substrate (50 nM) and the combination is incubated for one hour. The FRET assay is terminated with by addition of Tris buffer, which raises the pH to neutrality, and the fluorescence is determined. The FRET substrate is a peptide with commercially available fluorophore and quencher, on opposite sides of the BACE cleavage site. […]

BACE1, sequence (P56817 46-501, species assumed): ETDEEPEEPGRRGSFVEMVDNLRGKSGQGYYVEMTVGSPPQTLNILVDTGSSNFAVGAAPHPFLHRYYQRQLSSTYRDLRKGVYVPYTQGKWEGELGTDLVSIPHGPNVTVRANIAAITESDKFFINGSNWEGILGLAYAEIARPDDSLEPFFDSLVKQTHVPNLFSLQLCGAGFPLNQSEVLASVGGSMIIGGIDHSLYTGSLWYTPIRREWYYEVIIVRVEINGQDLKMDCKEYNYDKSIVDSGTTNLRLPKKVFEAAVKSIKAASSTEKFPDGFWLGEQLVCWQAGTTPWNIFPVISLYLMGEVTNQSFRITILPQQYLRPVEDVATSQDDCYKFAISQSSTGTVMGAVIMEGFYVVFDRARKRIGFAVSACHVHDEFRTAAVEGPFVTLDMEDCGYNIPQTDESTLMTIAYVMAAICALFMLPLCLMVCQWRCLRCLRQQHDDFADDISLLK

| Structure (SMILES) | IC50 [nM] |
| --- | --- |
| Cc1cccc(-c2ccc3c(c2)C2(COC(N)=N2)c2ccc(C)cc2O3)c1 (stereo not drawn) [Example 33, 6′-methyl-2′-(3-methylphenyl)spiro[1,3-oxazole-4,9′-xanthen]-2-amine] | > 5000 |
| Cc1ccc2c(c1)Oc1ccc(-c3ccccc3C)cc1C21COC(N)=N1 (stereo not drawn) [Example 34, 6′-methyl-2′-(2-methylphenyl)spiro[1,3-oxazole-4,9′-xanthen]-2-amine] | > 5000 |
| Cc1ccc2c(c1)Oc1ccc(-c3ccc(OC(F)(F)F)cc3)cc1C21COC(N)=N1 (stereo not drawn) [Example 36, 6′-methyl-2′-(4-(trifluoromethoxy)phenyl)spiro[1,3-oxazole-4,9′-xanthen]-2-amine] | > 5000 |

Second part, the compound after the results:

| IC50 [nM] | Structure (SMILES) |
| --- | --- |
| 100 to 1000 | NC1=NC2(CO1)c1cc(Cl)ccc1Oc1ccc(-c3cncnc3)cc12 (stereo not drawn) [Example 13, 2′-chloro-7′-(5-pyrimidinyl)spiro[1,3-oxazole-4,9′-xanthen]-2-amine] |
| > 5000 | COc1ccc2c(c1)[C@@]1(COC(N)=N1)c1cc(-c3cncnc3)ccc1O2 [Example 31, (4R)-2′-methoxy-7′-(5-pyrimidinyl)spiro[1,3-oxazole-4,9′-xanthen]-2-amine] |

same assay, conditions: Table II; read-out: BACE1 FRET assay

| Structure (SMILES) | IC50 [nM] |
| --- | --- |
| CC(C)(C)C[C@H](O)c1ccc2c(c1)[C@]1(COC(N)=N1)c1cc(-c3cncnc3)ccc1O2 [Example 49, (1S)-1-((4S)-2-amino-7′-(5-pyrimidinyl)spiro[1,3-oxazole-4,9′-xanthen]-2′-yl)-3,3-dimethyl-1-butanol] | < 100 |
| NC1=N[C@]2(CO1)c1cc(C#CC3CCCC3)ccc1Oc1ccc(-c3cncnc3)cc12 [Example 95, (4R)-2′-(cyclopentylethynyl)-7′-(5-pyrimidinyl)spiro[1,3-oxazole-4,9′-xanthen]-2-amine] | < 100 |
| NC1=N[C@]2(CO1)c1cc(OCC3CCCO3)ccc1Oc1ccc(-c3cccnc3)cc12 (stereo partly drawn) [Example 99, (4S)-2′-(3-pyridinyl)-7′-(tetrahydro-2-furanylmethoxy)spiro[1,3-oxazole-4,9′-xanthen]-2-amine] | < 100 |
| NC1=N[C@]2(CO1)c1cc(C#CC3CC3)ccc1Oc1ccc(-c3cncnc3)cc12 [Example 101, (4R)-2′-(cyclopropylethynyl)-7′-(5-pyrimidinyl)spiro[1,3-oxazole-4,9′-xanthen]-2-amine] | < 100 |
| NC1=N[C@]2(CO1)c1cc(C(=O)CC3CCCC3)ccc1Oc1ccc(-c3cncnc3)cc12 [Example 102, 1-((4S)-2-amino-7′-(5-pyrimidinyl)spiro[1,3-oxazole-4,9′-xanthen]-2′-yl)-2-cyclopentylethanone] | < 100 |
| NC1=N[C@@]2(CO1)c1cc(C#CC3CC3)ccc1Oc1ccc(OCC3CCCO3)cc12 (stereo partly drawn) [Example 103, (4S)-2′-(cyclopropylethynyl)-7′-(tetrahydro-2-furanylmethoxy)spiro[1,3-oxazole-4,9′-xanthen]-2-amine] | < 100 |
| NC1=N[C@]2(CO1)c1cc(OC[C@@H]3CCCO3)ccc1Oc1ccc(-c3cncnc3)cc12 [Example 105, (4S)-2′-(5-pyrimidinyl)-7′-((2S)-tetrahydro-2-furanylmethoxy)spiro[1,3-oxazole-4,9′-xanthen]-2-amine] | < 100 |

Further lines, results first:

| IC50 [nM] | Structure (SMILES) |
| --- | --- |
| < 100 | NC1=N[C@]2(CO1)c1cc(OC[C@@H]3CC3(F)F)ccc1Oc1ccc(-c3cncnc3)cc12 [Example 97, (4S)-2′-(((1S)-2,2-difluorocyclopropyl)methoxy)-7′-(5-pyrimidinyl)spiro[1,3-oxazole-4,9′-xanthen]-2-amine] |
| < 100 | NC1=N[C@]2(CO1)c1cc(OC[C@H]3CC3(F)F)ccc1Oc1ccc(-c3cncnc3)cc12 [Example 98, (4S)-2′-(((1R)-2,2-difluorocyclopropyl)methoxy)-7′-(5-pyrimidinyl)spiro[1,3-oxazole-4,9′-xanthen]-2-amine] |
| < 100 | NC1=N[C@]2(CO1)c1cc(OC[C@H]3CCCO3)ccc1Oc1ccc(-c3cncnc3)cc12 [Example 106, (4S)-2′-(5-pyrimidinyl)-7′-((2R)-tetrahydro-2-furanylmethoxy)spiro[1,3-oxazole-4,9′-xanthen]-2-amine] |
